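Protocol summary: plate cells (96-well), add compound at 5 concentrations, incubate 48 h, interpolate endpoints linearly. GI50 is the concentration that inhibits growth by half.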 Active and inactive are the calls of the source. No stated cut-off is given here; in the data, active = GI50 up to about 1.1 µM and inactive = higher.
Assays:
Assay in all cases: NCI-60 cell line screen, 48 h
PC-3 = tested on: PC-3
MDA-N = tested on: MDA-N
MCF7 = tested on: MCF7
HT-29 = tested on: HT-29
SK-MEL-5 = tested on: SK-MEL-5
SF-268 = tested on: SF-268
KM12 = tested on: KM12
NCI-H522 = tested on: NCI-H522
SF-539 = tested on: SF-539
U-251 = tested on: U-251
UACC-62 = tested on: UACC-62
UO-31 = tested on: UO-31
OVCAR-4 = tested on: OVCAR-4
UACC-257 = tested on: UACC-257
SK-MEL-2 = tested on: SK-MEL-2
Hs-578T = tested on: Hs-578T
Malme-3M = tested on: Malme-3M
OVCAR-5 = tested on: OVCAR-5
HL-60 = tested on: HL-60
SR = tested on: SR

Measured: GI50

COc1cc(/C=C2\CC3C4CC=C5C[C@@H](O)CC[C@]5(C)C4CC[C@]3(C)\C2=N\O)cc(OC)c1OC (stereo not given in full)
inactive: PC-3 4.28 µM | MDA-N 6.37 µM | MCF7 3.21 µM | HT-29 5.51 µM | SK-MEL-5 4.4 µM | SF-268 8.02 µM | KM12 2.54 µM | NCI-H522 4.93 µM | SF-539 6.25 µM | U-251 6.28 µM | UACC-62 9.06 µM | UO-31 2.28 µM | OVCAR-4 3.94 µM | UACC-257 9.91 µM | SK-MEL-2 4.07 µM | Hs-578T 4.42 µM | Malme-3M 9.35 µM | OVCAR-5 10.3 µM | HL-60 4.61 µM

c1ccc2c(c1)C(=Nc1ccc(N=C3c4ccccc4-c4ccccc43)cc1)c1ccccc1-2
inactive: PC-3 > 100 µM | MDA-N > 100 µM | MCF7 > 100 µM | HT-29 > 100 µM | SK-MEL-5 > 100 µM | SF-268 > 100 µM | KM12 > 100 µM | NCI-H522 > 100 µM | U-251 > 100 µM | UACC-62 > 100 µM | UO-31 > 100 µM | OVCAR-4 > 100 µM | UACC-257 > 100 µM | SK-MEL-2 > 100 µM | Hs-578T > 100 µM | Malme-3M > 100 µM | OVCAR-5 > 100 µM | HL-60 54.1 µM

CC(C)=NN/C(=N\c1ccc(Cl)cc1)NS(=O)(=O)c1ccc(Oc2cccc(Cl)c2C#N)cc1
inactive: PC-3 > 100 µM | MDA-N > 100 µM | MCF7 > 100 µM | HT-29 > 100 µM | SK-MEL-5 > 100 µM | SF-268 > 100 µM | KM12 > 100 µM | NCI-H522 > 100 µM | U-251 > 100 µM | UACC-62 > 100 µM | UO-31 > 100 µM | OVCAR-4 > 100 µM | UACC-257 > 100 µM | SK-MEL-2 > 100 µM | Hs-578T > 100 µM | Malme-3M > 100 µM | OVCAR-5 > 100 µM | HL-60 > 100 µM

CC(C)CCCC(C)[C@H]1CC[C@H]2n3c(nc4ccccc43)CCC[C@]12C (stereo not given in full)
inactive: PC-3 18.6 µM | MDA-N 16.2 µM | MCF7 14.2 µM | HT-29 8.79 µM | SK-MEL-5 16.4 µM | SF-268 20.3 µM | KM12 19.7 µM | SR 15.8 µM | SF-539 18.8 µM | U-251 19.2 µM | UACC-62 16.2 µM | UO-31 14.3 µM | OVCAR-4 16 µM | UACC-257 20 µM | SK-MEL-2 17.2 µM | Hs-578T 26.9 µM | Malme-3M 21.9 µM | HL-60 13.6 µM

CCc1n[nH]c(=O)n1N1C(=O)C2CC=CCC2C1=O (stereo not given)
inactive: PC-3 > 100 µM | MDA-N > 100 µM | MCF7 > 100 µM | HT-29 > 100 µM | SK-MEL-5 > 100 µM | SF-268 > 100 µM | KM12 > 100 µM | SR > 100 µM | NCI-H522 > 100 µM | SF-539 > 100 µM | U-251 > 100 µM | UACC-62 > 100 µM | UO-31 > 100 µM | OVCAR-4 > 100 µM | UACC-257 > 100 µM | SK-MEL-2 > 100 µM | Hs-578T > 100 µM | Malme-3M > 100 µM | OVCAR-5 > 100 µM

Cc1ccc(/N=N\c2c(O)ccc3cc(S(=O)(=O)O)ccc23)cc1
inactive: PC-3 > 100 µM | MDA-N > 100 µM | MCF7 > 100 µM | HT-29 > 100 µM | SK-MEL-5 > 100 µM | SF-268 > 100 µM | KM12 > 100 µM | NCI-H522 > 100 µM | SF-539 > 100 µM | U-251 > 100 µM | UACC-62 > 100 µM | UO-31 > 100 µM | OVCAR-4 > 100 µM | UACC-257 > 100 µM | SK-MEL-2 > 100 µM | Hs-578T > 100 µM | Malme-3M > 100 µM | OVCAR-5 > 100 µM | HL-60 > 100 µM

Oc1ccc(Br)cc1/C=N/C1CCCCC1
inactive: PC-3 15.2 µM | MDA-N 34.8 µM | MCF7 14.6 µM | HT-29 42.3 µM | SK-MEL-5 19.2 µM | SF-268 10.6 µM | KM12 29.8 µM | NCI-H522 55.3 µM | SF-539 38.7 µM | U-251 12.4 µM | UACC-62 32 µM | UO-31 33.8 µM | OVCAR-4 21.1 µM | UACC-257 47.2 µM | SK-MEL-2 25.1 µM | Hs-578T 37.7 µM | Malme-3M 27.6 µM | OVCAR-5 > 100 µM | HL-60 4.81 µM

From ChEMBL document CHEMBL1201862, “PubChem BioAssay data set” (2004)
